Measured values as given in ChEMBL document CHEMBL3885861, “Open TG-GATES”.

Species on record: Rattus norvegicus
Assay: Open TG-GATES - Regimen: Daily Repeat
Type: toxicity, organism-based, Sprague-Dawley
Set-up: regimen Daily Repeat, gender Male, age 6 weeks
Settings: in vivo, po, 100 mg/kg, route gavage, dose level Low; for APTT / Bas / Eos / Fbg / Hb / Ht / Lym / MCH / MCHC / MCV / Mono / Neu / PT / Plat / RBC / Ret / WBC: tissue Blood; for KIDNEY_L / KIDNEY_R / KIDNEY_TOTAL: tissue Kidney; for LIVER: tissue Liver; for A/G / ALP / ALT / AST / BUN / CRE / Ca / Cl / DBIL / GLC / IP / K / LDH / Na / PL / RALB / TBIL / TC / TG / TP / gamma-GTP: tissue Plasma

COc1ccc(Cl)cc1C(=O)NCCc1ccc(S(=O)(=O)NC(=O)NC2CCCCC2)cc1 [GLYBURIDE]
TERMINAL_BW (72 h, time 3 day): 227.4 g | APTT (72 h, time 3 day): 20.1 s | Bas (72 h, time 3 day): 0% | Eos (72 h, time 3 day): 1% | Fbg (72 h, time 3 day): 222.4 mg/dL | Hb (72 h, time 3 day): 13.6 g/dL | Ht (72 h, time 3 day): 40.3% | Lym (72 h, time 3 day): 83% | MCH (72 h, time 3 day): 21.4 pg | MCHC (72 h, time 3 day): 33.6% | MCV (72 h, time 3 day): 63.7 fL | Mono (72 h, time 3 day): 2.6% | Neu (72 h, time 3 day): 12.8% | PT (72 h, time 3 day): 12.2 s | Plat (72 h, time 3 day): 115.5 x10_4/uL | RBC (72 h, time 3 day): 632.6 x10_4/ul | Ret (72 h, time 3 day): 5.2% | WBC (72 h, time 3 day): 104.4 x10_2/uL | KIDNEY_L (72 h, time 3 day): 1 g | KIDNEY_R (72 h, time 3 day): 1 g | KIDNEY_TOTAL (72 h, time 3 day): 1.9 g | LIVER (72 h, time 3 day): 10.6 g | A/G (72 h, time 3 day): 1.7 | ALP (72 h, time 3 day): 952 IU/L | ALT (72 h, time 3 day): 42 IU/L | AST (72 h, time 3 day): 65.4 IU/L | BUN (72 h, time 3 day): 15 mg/dL | CRE (72 h, time 3 day): 0.4 mg/dL | Ca (72 h, time 3 day): 10.9 mg/dL | Cl (72 h, time 3 day): 103 meq/L | DBIL (72 h, time 3 day): 0.1 mg/dL | GLC (72 h, time 3 day): 187.8 mg/dL | IP (72 h, time 3 day): 6.9 mg/dL | K (72 h, time 3 day): 3.8 meq/L | LDH (72 h, time 3 day): 183.6 IU/L | Na (72 h, time 3 day): 141.6 meq/L | PL (72 h, time 3 day): 153.8 mg/dL | RALB (72 h, time 3 day): 3.5 g/dL | TBIL (72 h, time 3 day): 0.1 mg/dL | TC (72 h, time 3 day): 75.4 mg/dL | TG (72 h, time 3 day): 113 mg/dL | TP (72 h, time 3 day): 5.6 g/dL | gamma-GTP (72 h, time 3 day): 1.4 IU/L | TERMINAL_BW ([…], time 7 day): 265.1 g | TERMINAL_BW ([…], time 14 day): 301.6 g | TERMINAL_BW ([…], time 28 day): 376.3 g | APTT ([…], time 7 day): 19.7 s | Bas ([…], time 7 day): 0.2% | Eos ([…], time 7 day): 0.8% | Fbg ([…], time 7 day): 223 mg/dL | Hb ([…], time 7 day): 13 g/dL | Ht ([…], time 7 day): 38.5% | Lym ([…], time 7 day): 79.4% | MCH ([…], time 7 day): 21 pg | MCHC ([…], time 7 day): 33.7% | MCV ([…], time 7 day): 62.3 fL | Mono ([…], time 7 day): 3% | Neu ([…], time 7 day): 16.4% | PT ([…], time 7 day): 12.5 s | Plat ([…], time 7 day): 124.6 x10_4/uL | RBC ([…], time 7 day): 618 x10_4/ul | Ret ([…], time 7 day): 5.6% | WBC ([…], time 7 day): 123.7 x10_2/uL | APTT ([…], time 14 day): 19.3 s | Bas ([…], time 14 day): 0% | Eos ([…], time 14 day): 1% | Fbg ([…], time 14 day): 224.6 mg/dL | Hb ([…], time 14 day): 14.3 g/dL | Ht ([…], time 14 day): 40.2% | Lym ([…], time 14 day): 78% | MCH ([…], time 14 day): 21 pg | MCHC ([…], time 14 day): 35.6% | MCV ([…], time 14 day): 59.2 fL | Mono ([…], time 14 day): 2.2% | Neu ([…], time 14 day): 17.8% | PT ([…], time 14 day): 12.3 s | Plat ([…], time 14 day): 122 x10_4/uL | RBC ([…], time 14 day): 679.6 x10_4/ul | Ret ([…], time 14 day): 3.9% | WBC ([…], time 14 day): 137.4 x10_2/uL | APTT ([…], time 28 day): 23 s | Bas ([…], time 28 day): 0% | Eos ([…], time 28 day): 0.8% | Fbg ([…], time 28 day): 207.8 mg/dL | Hb ([…], time 28 day): 15.2 g/dL | Ht ([…], time 28 day): 43.5% | Lym ([…], time 28 day): 82.6% | MCH ([…], time 28 day): 19.3 pg | MCHC ([…], time 28 day): 34.9% | MCV ([…], time 28 day): 55.4 fL | Mono ([…], time 28 day): 2.4% | Neu ([…], time 28 day): 13.4% | PT ([…], time 28 day): 12.7 s | Plat ([…], time 28 day): 105.5 x10_4/uL | RBC ([…], time 28 day): 786.4 x10_4/ul | Ret ([…], time 28 day): 2.6% | WBC ([…], time 28 day): 115.6 x10_2/uL | KIDNEY_L ([…], time 7 day): 1.1 g | KIDNEY_R ([…], time 7 day): 1.1 g | KIDNEY_TOTAL ([…], time 7 day): 2.2 g | KIDNEY_L ([…], time 14 day): 1.1 g | KIDNEY_R ([…], time 14 day): 1.2 g | KIDNEY_TOTAL ([…], time 14 day): 2.3 g | KIDNEY_L ([…], time 28 day): 1.3 g | KIDNEY_R ([…], time 28 day): 1.3 g | KIDNEY_TOTAL ([…], time 28 day): 2.6 g | LIVER ([…], time 7 day): 12.7 g | LIVER ([…], time 14 day): 13 g | LIVER ([…], time 28 day): 15.8 g | A/G ([…], time 7 day): 1.5 | ALP ([…], time 7 day): 816.2 IU/L | ALT ([…], time 7 day): 35.2 IU/L | AST ([…], time 7 day): 60.2 IU/L | BUN ([…], time 7 day): 15.8 mg/dL | CRE ([…], time 7 day): 0.4 mg/dL | Ca ([…], time 7 day): 11 mg/dL | Cl ([…], time 7 day): 102.4 meq/L | DBIL ([…], time 7 day): 0.1 mg/dL | GLC ([…], time 7 day): 196 mg/dL | IP ([…], time 7 day): 7.3 mg/dL | K ([…], time 7 day): 4.1 meq/L | LDH ([…], time 7 day): 155.2 IU/L | Na ([…], time 7 day): 140.6 meq/L | PL ([…], time 7 day): 151.8 mg/dL | RALB ([…], time 7 day): 3.4 g/dL | TBIL ([…], time 7 day): 0.2 mg/dL | TC ([…], time 7 day): 78.4 mg/dL | TG ([…], time 7 day): 116.4 mg/dL | TP ([…], time 7 day): 5.7 g/dL | gamma-GTP ([…], time 7 day): 1.2 IU/L | A/G ([…], time 14 day): 1.4 | ALP ([…], time 14 day): 1042 IU/L | ALT ([…], time 14 day): 37 IU/L | AST ([…], time 14 day): 63.6 IU/L | BUN ([…], time 14 day): 15.2 mg/dL | CRE ([…], time 14 day): 0.5 mg/dL | Ca ([…], time 14 day): 10.7 mg/dL | Cl ([…], time 14 day): 102.2 meq/L | DBIL ([…], time 14 day): 0.1 mg/dL | GLC ([…], time 14 day): 193.2 mg/dL | IP ([…], time 14 day): 6.4 mg/dL | K ([…], time 14 day): 3.9 meq/L | LDH ([…], time 14 day): 138.2 IU/L | Na ([…], time 14 day): 140.2 meq/L | PL ([…], time 14 day): 166.4 mg/dL | RALB ([…], time 14 day): 3.5 g/dL | TBIL ([…], time 14 day): 0.2 mg/dL | TC ([…], time 14 day): 81.2 mg/dL | TG ([…], time 14 day): 116.8 mg/dL | TP ([…], time 14 day): 6 g/dL | gamma-GTP ([…], time 14 day): 0.6 IU/L | A/G ([…], time 28 day): 1.4 | ALP ([…], time 28 day): 594 IU/L | ALT ([…], time 28 day): 33.6 IU/L | AST ([…], time 28 day): 58.4 IU/L | BUN ([…], time 28 day): 14.6 mg/dL | CRE ([…], time 28 day): 0.5 mg/dL | Ca ([…], time 28 day): 10.4 mg/dL | Cl ([…], time 28 day): 103.6 meq/L | DBIL ([…], time 28 day): 0.09 mg/dL | GLC ([…], time 28 day): 213.6 mg/dL | IP ([…], time 28 day): 6.4 mg/dL | K ([…], time 28 day): 3.9 meq/L | LDH ([…], time 28 day): 147 IU/L | Na ([…], time 28 day): 141 meq/L | PL ([…], time 28 day): 137.4 mg/dL | RALB ([…], time 28 day): 3.4 g/dL | TBIL ([…], time 28 day): 0.2 mg/dL | TC ([…], time 28 day): 69 mg/dL | TG ([…], time 28 day): 98.8 mg/dL | TP ([…], time 28 day): 5.8 g/dL | gamma-GTP ([…], time 28 day): 1.4 IU/L
